According to PMC5112673, “A novel pyruvate kinase and its application in lactic acid production under oxygen deprivation in Corynebacterium glutamicum” (BMC Biotechnology, 2016):
Like-named read-outs stand apart in the source and are kept apart here.

Tested on: T1, Pyk2
T1 construct: full length, pET-28a N-terminal His-tag (removable by thrombin; tagged and cut similarly active), E. coli BL21(DE3), subunit 67,572 Da, homohexamer 430,881 Da by gel filtration
Assay: coupled L-lactate dehydrogenase / NADH assay, […] nm, allosteric sigmoidal fit
Type: biochemical, Corynebacterium glutamicum
Details: 5 mM MnSO4, 100 mM KCl, 100 mM Tris-HCl pH 7.4, 25°C, no effector, read-out: S 0.5

Structure (SMILES) | Km (5 mM PEP) [µM] | Km (2 mM ADP) [µM]
Nc1ncnc2c1ncn2[C@@H]1O[C@H](COP(=O)(O)OP(=O)(O)O)[C@@H](O)[C@H]1O [ADP] | 330 ± 30 | –
C=C(OP(=O)(O)O)C(=O)O [PEP] | – | 4580 ± 740
